Where two headings read alike, the source gives them in different places.
Key:
[1] = system: liver cancer (3 cell lines); assay: CellTiter-Glo Viability Assay, liver cancer; type: cell-based; conditions: Homo sapiens, inhibition of cancer cell proliferation
[2] = system: haematopoietic & lymphoid tumors (13 cell lines); assay: CellTiter-Glo Viability Assay, haematopoietic & lymphoid tumors; type: cell-based; conditions: Homo sapiens, inhibition of cancer cell proliferation
[3] = system: ovarian cancer (4 cell lines); assay: CellTiter-Glo Viability Assay, ovarian cancer; type: cell-based; conditions: Homo sapiens, inhibition of cancer cell proliferation
CLK3 = CLK3 (Homo sapiens, UniProt P49761); assay: CLK3 kinase activity assay (Z-lyte, Ser/Thr 18 peptide)
[4] = system: colorectal cancer (6 cell lines); assay: CellTiter-Glo Viability Assay, colorectal cancer; type: cell-based; conditions: Homo sapiens, inhibition of cancer cell proliferation
all 50 cell lines = assay: CellTiter-Glo Viability Assay, average across all cell lines; type: cell-based; conditions: Homo sapiens; across all 50 cell lines; read-out: average EC50 for inhibition of cancer cell proliferation
In short: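 Cancer cell lines of several tumour types plated at 300-3,000 cells/well and exposed to compound in duplicate for four days at 37° C, 5% CO2, with DMSO-treated controls. Viability read by CellTiter-Glo luminescence (ATP content); EC50 derived from dose-response curves.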

T47D = assay: CellTiter-Glo Viability Assay, breast cancer; type: cell-based; conditions: Homo sapiens, 96 h, breast cancer, four days, read-out: EC50
HCC1599 = assay: CellTiter-Glo Viability Assay, breast cancer; type: cell-based; conditions: Homo sapiens, 96 h; HCC1599, breast cancer, four days; read-out: EC50
MDA-MB-231-Luc = assay: CellTiter-Glo Viability Assay, breast cancer; type: cell-based; conditions: Homo sapiens, 96 h; MDA-MB-231-Luc, breast cancer, four days; read-out: EC50
BT-549 = assay: CellTiter-Glo Viability Assay, breast cancer; type: cell-based; conditions: Homo sapiens, 96 h; BT-549, breast cancer, four days; read-out: EC50
CAMA1 = assay: CellTiter-Glo Viability Assay, breast cancer; type: cell-based; conditions: Homo sapiens, CAMA-1, 96 h; CAMA1, breast cancer, four days; read-out: EC50
DU4475 = assay: CellTiter-Glo Viability Assay, breast cancer; type: cell-based; conditions: Homo sapiens, DU-4475, 96 h; DU4475, breast cancer, four days; read-out: EC50
ZR-75-1 = assay: CellTiter-Glo Viability Assay, breast cancer; type: cell-based; conditions: Homo sapiens, 96 h; ZR-75-1, breast cancer, four days; read-out: EC50
MCF7 = assay: CellTiter-Glo Viability Assay, breast cancer; type: cell-based; conditions: Homo sapiens, 96 h; MCF7, breast cancer, four days; read-out: EC50
[5] = system: prostate cancer (5 cell lines); assay: CellTiter-Glo Viability Assay, prostate cancer; type: cell-based; conditions: Homo sapiens
[6] = system: lung cancer (4 cell lines); assay: CellTiter-Glo Viability Assay, lung cancer; type: cell-based; conditions: Homo sapiens, inhibition of cancer cell proliferation
[7] = system: pancreatic cancer (8 cell lines); assay: CellTiter-Glo Viability Assay, pancreatic cancer; type: cell-based; conditions: Homo sapiens, inhibition of cancer cell proliferation
CLK2 = target: T1, CLK2 (Homo sapiens, UniProt P49760); assay: CLK2 kinase activity assay (Z-lyte, Ser/Thr 6 peptide); type: biochemical; conditions: recombinant CLK2 kinase, ATP 60 μM; read-out: EC50
T1 construct: purchased Thermo Fisher (Life Technologies), Z'-LYTE Kinase Assay Kits
Protocol: All reactions were performed in duplicate.

T1 sequence (P49760 whole entry): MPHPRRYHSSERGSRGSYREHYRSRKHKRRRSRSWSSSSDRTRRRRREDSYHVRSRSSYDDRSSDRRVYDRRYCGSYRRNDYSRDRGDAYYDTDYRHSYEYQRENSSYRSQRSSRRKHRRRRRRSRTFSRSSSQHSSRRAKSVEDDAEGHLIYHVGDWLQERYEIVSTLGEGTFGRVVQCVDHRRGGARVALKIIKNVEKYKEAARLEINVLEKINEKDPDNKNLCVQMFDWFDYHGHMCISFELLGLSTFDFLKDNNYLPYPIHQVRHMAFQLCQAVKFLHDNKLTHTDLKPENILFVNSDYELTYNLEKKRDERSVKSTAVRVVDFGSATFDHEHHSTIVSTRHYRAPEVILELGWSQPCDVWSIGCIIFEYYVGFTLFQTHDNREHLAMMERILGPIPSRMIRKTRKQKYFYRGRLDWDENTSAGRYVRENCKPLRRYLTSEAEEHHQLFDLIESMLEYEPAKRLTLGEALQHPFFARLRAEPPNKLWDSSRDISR
CLK3, sequence (P49761 whole entry): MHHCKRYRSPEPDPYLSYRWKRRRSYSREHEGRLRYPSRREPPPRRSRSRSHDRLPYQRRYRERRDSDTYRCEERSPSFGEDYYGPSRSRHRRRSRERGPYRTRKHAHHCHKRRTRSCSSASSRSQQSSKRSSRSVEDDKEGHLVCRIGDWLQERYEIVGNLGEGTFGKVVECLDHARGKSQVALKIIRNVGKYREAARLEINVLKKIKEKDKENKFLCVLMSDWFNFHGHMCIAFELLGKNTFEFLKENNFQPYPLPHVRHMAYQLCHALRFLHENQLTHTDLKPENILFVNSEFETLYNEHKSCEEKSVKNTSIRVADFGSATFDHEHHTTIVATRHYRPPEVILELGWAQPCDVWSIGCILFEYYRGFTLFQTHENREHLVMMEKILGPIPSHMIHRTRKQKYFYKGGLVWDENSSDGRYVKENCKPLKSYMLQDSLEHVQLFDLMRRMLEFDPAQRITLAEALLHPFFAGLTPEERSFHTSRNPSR

In the case of CN1CCC(C(=O)Nc2c[nH]nc2-c2nc3c(-c4ccc(F)s4)cccc3[nH]2)CC1 [Compound 90], the EC50 ([1]; SNU-398, SNU398 cell line, read-out: Liver cancer, EC50 SNU398) is reported as 0.055 µM, the EC50 ([1]; HEPG2 cell line, read-out: Liver cancer, EC50 HEPG2) is reported as 0.164 µM and the EC50 ([1]; PLC/PRF/5 cell line, read-out: Liver cancer, EC50 PLC/PRF/5) is reported as 0.371 µM. For the same molecule, the EC50 ([2]; DND41, DND-41 cell line, read-out: Haematopoietic & Lymphoid tumors, EC50 (μM) DND-41) was 0.106 µM, the EC50 ([2]; MV4-11, MV-4-11 cell line, read-out: Haematopoietic & Lymphoid tumors, EC50 (μM) MV-4-11) was 0.008 µM and the EC50 ([2]; Rec1, REC-1 cell line, read-out: Haematopoietic & Lymphoid tumors, EC50 (μM) REC-1) was 0.022 µM. The EC50 ([2]; SU-DHL-4, SUDHL4 cell line, read-out: Haematopoietic & Lymphoid tumors, EC50 (μM) SUDHL4) was 0.079 µM, the EC50 ([2]; HL-60 cell line, read-out: Haematopoietic & Lymphoid tumors, EC50 (μM) HL-60) was 0.246 µM and the EC50 ([2]; JM1 cell line, read-out: Haematopoietic & Lymphoid tumors, EC50 (μM) JM1) was 0.06 µM. For the same molecule, the EC50 ([2]; JURKAT, Clone E6-1 cell line, read-out: Haematopoietic & Lymphoid tumors, EC50 (μM) JURKAT, Clone E6-1) was 0.226 µM, the EC50 ([2]; JeKo-1 cell line, read-out: Haematopoietic & Lymphoid tumors, EC50 (μM) JeKo-1) was 0.04 µM and the EC50 ([2]; KASUMI-1 cell line, read-out: Haematopoietic & Lymphoid tumors, EC50 (μM) KASUMI-1) was 0.053 µM. It also gave an EC50 ([2]; Loucy cell line, read-out: Haematopoietic & Lymphoid tumors, EC50 (μM) Loucy) of 0.105 µM, an EC50 ([2]; MOLT-4 cell line, read-out: Haematopoietic & Lymphoid tumors, EC50 (μM) MOLT-4) of 0.125 µM and an EC50 ([2]; TF-1 cell line, read-out: Haematopoietic & Lymphoid tumors, EC50 (μM) TF-1) of 0.08 µM. For the same molecule, the EC50 ([2]; TOLEDO cell line, read-out: Haematopoietic & Lymphoid tumors, EC50 (μM) TOLEDO) was 0.066 µM, the EC50 ([3]; PA-1, PA1 cell line, read-out: Ovarian cancer, EC50 (μM) PA1) was 0.23 µM and the EC50 ([3]; TOV112D, TOV-112D cell line, read-out: Ovarian cancer, EC50 (μM) TOV-112D) was 0.101 µM. The EC50 ([3]; OV-90 cell line, read-out: Ovarian cancer, EC50 (μM) OV-90) was 0.361 µM, the EC50 ([3]; OVCAR-3 cell line, read-out: Ovarian cancer, EC50 (μM) OVCAR-3) was 0.111 µM and the EC50 (CLK3) was 0.0217 µM. It also gave an EC50 ([4]; HCT-116, HCT116 cell line, read-out: Colorectal cancer, EC50 (μM) HCT116) of 0.06 µM, an EC50 ([4]; HT-29, HT29 cell line, read-out: Colorectal cancer, EC50 (μM) HT29) of 0.171 µM and an EC50 ([4]; SW-620, SW620 cell line, read-out: Colorectal cancer, EC50 (μM) SW620) of 0.047 µM. For the same molecule, the EC50 ([4]; DLD-1 cell line, read-out: Colorectal cancer, EC50 (μM) DLD-1) was 0.131 µM, the EC50 ([4]; SW48 cell line, read-out: Colorectal cancer, EC50 (μM) SW48) was 0.023 µM and the EC50 ([4]; SW480 cell line, read-out: Colorectal cancer, EC50 (μM) SW480) was 0.061 µM. For the same molecule, the EC50 (all 50 cell lines) was 0.142 µM, the EC50 (T47D) was 0.281 µM and the EC50 (HCC1599) was 0.125 µM. For the same molecule, the EC50 (MDA-MB-231-Luc) was 0.202 µM, the EC50 (BT-549) was 0.116 µM and the EC50 (CAMA1) was 0.433 µM. For the same molecule, the EC50 (DU4475) was 0.095 µM, the EC50 (ZR-75-1) was 0.216 µM and the EC50 (MCF7) was 0.36 µM. For the same molecule, the EC50 ([5]; DU-145, read-out: Prostate cancer EC50 Du-145) was 0.123 µM, the EC50 ([5]; PC-3, PC3 cell line, inhibition of cancer cell proliferation, read-out: Prostate cancer EC50 PC3) was 0.093 µM and the EC50 ([5]; 22Rv1 cell line, inhibition of cancer cell proliferation, read-out: Prostate cancer EC50 22Rv1) was 0.102 µM. For the same molecule, the EC50 ([5]; LNCap clone FGC cell line, inhibition of cancer cell proliferation, read-out: Prostate cancer EC50 LNCap clone FGC) was 0.332 µM, the EC50 ([5]; VCaP (Sigma) cell line, inhibition of cancer cell proliferation, read-out: Prostate cancer EC50 VCaP (Sigma)) was 0.098 µM and the EC50 ([6]; A-427, A427 cell line, read-out: Lung cancer, EC50 (μM) A427) was 0.13 µM. The EC50 ([6]; HCC78, HCC-78 cell line, read-out: Lung cancer, EC50 (μM) HCC-78) was 0.136 µM, the EC50 ([6]; NCI-H460 cell line, read-out: Lung cancer, EC50 (μM) NCI-H460) was 0.243 µM and the EC50 ([6]; NCI-H522 cell line, read-out: Lung cancer, EC50 (μM) NCI-H522) was 0.091 µM. For the same molecule, the EC50 ([7]; BXPC-3, BxPC3 cell line, read-out: Pancreatic cancer, EC50 BxPC3) was 0.046 µM, the EC50 ([7]; CAPAN-1, Capan1 cell line, read-out: Pancreatic cancer, EC50 Capan1) was 0.114 µM and the EC50 ([7]; Capan-2, Capan2 cell line, read-out: Pancreatic cancer, EC50 Capan2) was 0.151 µM. The EC50 ([7]; MIA PaCa-2 cell line, read-out: Pancreatic cancer, EC50 MIA PaCa-2) was 0.06 µM, the EC50 ([7]; PANC 05.04 cell line, read-out: Pancreatic cancer, EC50 PANC 05.04) was 0.14 µM and the EC50 ([7]; PANC-1 cell line, read-out: Pancreatic cancer, EC50 PANC-1) was 0.217 µM. The EC50 ([7]; UPAFII cell line, read-out: Pancreatic cancer, EC50 UPAFII) was 0.106 µM and the EC50 (CLK2) was 0.0112 µM.
